Source: patent publication US11273131B2, “Pharmaceutical compositions with enhanced permeation” (AQUESTIVE THERAPEUTICS, INC., priority 2016, dated 2022)
Marks after values point to notes of the source that are not given here.

Experiments:
[1] = Ex vivo permeation of epinephrine, Franz diffusion cell
Procedure: A franz diffusion cell is obtained and prepared.
If testing films, one can perform the following next steps: (1) weigh films, punch to match diffusion area (or smaller), reweigh, record pre- and post-punching weight; (2) wet a donor area with approximately 100 μL of phosphate buffer; (3) place film on a donor surface, top with 400 μL of phosphate buffer, and start timers.
The tissue is dermatomed to precise thickness. • 4. […] The media is selected to ensure sink conditions. • 5.

[2] = FIG. 6A, 6B
[3] = Diazepam solubility in excipients; format: physicochemical; settings: diazepam (API) in the excipient
Description: Diazepam was applied in the buccal area (cheek) to diffuse through the oral mucosa and enter directly into the bloodstream. Solubility of diazepam was also studied using various excipients.
The following excipients have also been studied to improve solubility.

[4] = Excipient properties (HLB, water solubility); format: physicochemical; settings: of the excipient

SMILES: CNC[C@H](O)c1ccc(O)c(O)c1 [Epinephrine Bitartrate]
- permeation as a function of concentration [1]: increasing concentration resulted in increased permeation
- permeation as a function of solution pH [1]: pH 5 was slightly more favorable as compared to pH 3
- average flux ([1]; 30 min, 16 mg/mL): 0 μg/cm2 * min
- average flux ([1]; 45 min, 16 mg/mL): 0.2604 μg/cm2 * min
- average flux ([1]; 60 min, 16 mg/mL): 0.3125 μg/cm2 * min
- average flux ([1]; 120 min, 16 mg/mL): 0.6727 μg/cm2 * min
- average flux ([1]; 180 min, 16 mg/mL): 1.076 μg/cm2 * min
- average flux ([1]; 240 min, 16 mg/mL): 1.029 μg/cm2 * min
- average flux ([1]; 300 min, 16 mg/mL): 1.25 μg/cm2 * min
- Average Steady State Flux ([1]; 360 min, 4 mg/mL): 0.167 ug/cm2 * min
- Average Steady State Flux ([1]; 360 min, 8 mg/mL): 0.466 ug/cm2 * min
- Average Steady State Flux ([1]; 360 min, 16 mg/mL): 1.317 ug/cm2 * min
- average flux ([1]; 360 min, 16 mg/mL): 1.385 μg/cm2 * min
- Average Steady State Flux ([1]; 360 min, 100 mg/mL): 2.942 ug/cm2 * min

SMILES: CNC[C@H](O)c1ccc(O)c(O)c1 [epinephrine]
- time after which amount leveled off [2]: about 40 minutes

SMILES: OCc1ccccc1 [Benzyl Alcohol]
- API Solubility mg/gm total mix [3]: 400 mg/gm total mix

SMILES: CNC[C@H](O)c1ccc(O)c(O)c1 [Epinephrine Base]
- permeation, base solubilized in situ vs Epinephrine Bitartrate ([1]; 4.4 mg/mL base vs 8.00 mg/mL bitartrate): no differences were found
- Average Steady State Flux ([1]; conc 4.4 mg/mL, solubilized in situ): 0.512 ug/cm2 * min

SMILES: CCCCCCCC/C=C\CCCCCCCC(=O)O [Oleic Acid]
- API Solubility mg/gm total mix [3]: <50 mg/gm total mix

SMILES: CCCCCCCC/C=C\CCCCCCCC(=O)OCC(O)CO (stereo not shown) [Glycerol Monooleate]
- API Solubility mg/gm total mix [3]: 71 mg/gm total mix
- HLB [4]: 1

SMILES: CC(O)CO (stereo not shown) [Propylene Glycol]
- API Solubility mg/gm total mix [3]: <30 mg/gm total mix
